Test results published in BindingDB's records for doi:10.1016/j.bmcl.2015.04.045 (Chungbuk National University, 2015).

Molecular target: T1, Pancreatic triacylglycerol lipase (Sus scrofa, UniProt P00591)
T1 sequence (P00591 whole entry): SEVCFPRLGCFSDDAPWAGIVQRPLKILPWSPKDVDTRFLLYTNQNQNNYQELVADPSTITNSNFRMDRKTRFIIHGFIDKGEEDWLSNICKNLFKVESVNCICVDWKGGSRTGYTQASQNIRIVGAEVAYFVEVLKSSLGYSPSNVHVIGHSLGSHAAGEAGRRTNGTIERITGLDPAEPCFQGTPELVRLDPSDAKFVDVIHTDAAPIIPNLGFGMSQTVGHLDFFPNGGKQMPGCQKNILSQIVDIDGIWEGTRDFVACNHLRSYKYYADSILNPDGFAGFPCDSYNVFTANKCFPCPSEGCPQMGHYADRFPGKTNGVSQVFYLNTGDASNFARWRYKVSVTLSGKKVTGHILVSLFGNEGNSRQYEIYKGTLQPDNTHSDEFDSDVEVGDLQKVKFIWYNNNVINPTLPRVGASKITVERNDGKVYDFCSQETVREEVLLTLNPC
Experiment: Inhibition of porcine pancreatic lipase using p-nitrophenylbutyrate as substrate assessed as formation of p-nitrophenol preincubated for 15 mins followed by substrate addition measured after 15 mins

IC50 [µM] | Compound
> 70 | O=c1cc(O)cc2oc(-c3ccc(O)cc3)c(O[C@@H]3O[C@H](CO)[C@@H](O)[C@H](O)[C@H]3O)c(O)c1-2 [3,4',5,7-Tetrahydroxyflavone-3-glucoside]
> 70 | O=c1cc(O)cc2oc(-c3ccc(O)c(O)c3)c(O[C@@H]3O[C@H](CO)[C@@H](O)[C@H](O)[C@H]3O)c(O)c1-2 [Quercetin 3-O-beta-D-glucoside]
